Measured values: US20160222131A1, “ATRX AS A COMPANION DIAGNOSTIC FOR CDK4 INHIBITORS” (Memorial Sloan-Kettering Cancer Center, priority 2013, published 2016)
Non-standard residues stand in square brackets, D forms with d. No end group written: not given here. Arg(Me2s) = CN=C(NC)NCCC[C@H](N)C(=O)O; pS = N[C@@H](COP(=O)(O)O)C(=O)O

Columns and labels:
Bethyl antibody = assay: Reactivity of ATRX C-terminal peptides with the Bethyl antibody; type: binding; settings: KLH-coupled peptides, FIG. 11
From the text: All peptides were generated by Thermo Fisher Scientific/Pierce Biotechnology and coupled to the carrier KLH. All conjugates were provided at >98% purity as determined by HPLC. Peptide sequences were confirmed by mass spec. Peptides RSK, 2490Ac and 2480Ra reacted with the Bethyl antibody (FIG. 11).

[1] = test system: responder cell line LS8817; assay: ATRX foci by immunofluorescence in responder cells treated with PD0332991; type: cell-based
Protocol: (§1) Cells were washed twice with PBS and fixed with 4% paraformaldehyde at room temperature for 20 minutes. Cells were again washed twice with PBS and treated with 0.1% triton X-100 in PBS for five minutes. Cells were again washed twice with PBS and blocked in 5% BSA in PBS for 30 minutes at room temperature. Cells were incubated with anti-ATRX antibody, obtained from Bethyl, Cat No. A301-045A, diluted at 1:2000 in PBS (stock is provided at 1 mg/ml) overnight at 4 degrees Celsius. The following day, cells were washed twice with PBS and incubated with Alexa Fluor-488 anti-rabbit secondary diluted at 1:500 in PBS (stock was provided at 2 mg/ml) for one hour at room temperature. Cells were washed twice with PBS and incubated with 0.1 ug/ml […] for 5 minutes at room temperature. Cells were washed three times with PBS and slides were mounted in Vectashield fluorescence mounting media. Slides were imaged using a Zeiss Axioplan 2 Upright Microscope. […] Immunofluorescence analysis using the Bethyl antibody was performed to determine if ATRX was recruited to foci. Immunofluorescence was performed as described in Example 1. In the responder cell line LS8817, further analysis was performed to determine the average number of foci present in responder cells undergoing senescence in response treatment with PD0332991. […] The distribution of the number of ATRX foci shifted to the right in responder cells treated with PD0332991 as compared to responder cells that were not treated. […] As shown in FIG. 16A-C, the increase in the number of ATRX foci in response to PD0332991 treatment in responder cells can be observed as early as day 2 subsequent to PD0332991 treatment.

[2] = test system: responder cell line LS8817; assay: Senescence-associated β-galactosidase after PD0332991 in ATRX knockdown cells; type: cell-based; settings: LS8817 infected with shRNA directed to ATRX vs shSCR, PD0332991 for seven days, FIG. 3
Protocol: To determine if ATRX plays a role in the senescence pathway induced by treatment with a CDK4 inhibitor, the expression of ATRX was genetically manipulated in the responder cell line, LS8817. Knockdown of ATRX (FIG. 2) was performed in LS8817 cells that were treated with PD0332991. The presence of ATRX in scrambled control shRNA (shSCR)-treated cells and the ATRX shRNA-treated cells was detected by the Bethyl antibody. The accumulation of […] associated β-galactosidase (SA-β-gal) shSCR-treated cells and the ATRX shRNA-treated cells was measured (FIG. 3). […] To determine if ATRX was also downstream of MDM2 loss, we subsequently infected the ATRX deficient cells with lentiviruses expressing shRNAs that targeted MDM2. In the responder cell line, LS8817, accumulation of SA-β-gal was still compromised even though the level of MDM2 was reduced (FIG. 4A). […] Thus, a form of ATRX was required for both PD0332991-induced loss of MDM2, and downstream of MDM2 loss to establish a senescent state.

[3] = test system: non-responder cell line LS8107; assay: ATRX foci by immunofluorescence in non-responder cells treated with PD0332991; type: cell-based
Protocol: as §1, with “treatment. To determine whether ATRX foci can be used as a marker for indicating if non-responders underwent senescence in response to treatment with second drug in combination with a CDK inhibitor, non-responder cells, e.g., LS8107, was treated with PD0332991 followed by treatment with shRNA directed to MDM2 2 days post-PD0332991 treatment (FIG. 17).” for “treatment.”

In the case of “APPMRSKNPGPSQGKSM [amino acids 2475-2492 of ATRX, no modification, coupled to the carrier KLH]”, the “reactivity with the Bethyl antibody” value (Bethyl antibody) is reported as “reacted”.
In the case of “APPPMRSKNP [2480Rs] (APPPM[Arg(Me2s)]SKNP) [Peptide 2480Rs, amino acids 2475-2484 of ATRX, symmetrically methylated at arginine 2480]”, the “reactivity with the Bethyl antibody” value (Bethyl antibody) is reported as “did not react”.
For “APPPMRSKNP [Peptide 2480Ra, amino acids 2475-2484 of ATRX, asymmetrically methylated at arginine 2480]”, the “reactivity with the Bethyl antibody” value (Bethyl antibody) was “reacted”.
In the case of “SKNPGPSQG (SKNPGP[pS]QG) [Peptide 2487P, amino acids 2481-2489 of ATRX, phosphorylated at serine 2487]”, the “reactivity with the Bethyl antibody” value (Bethyl antibody) is reported as “did not react”.
“PPPLQRAPPM [Peptide 2474, amino acids 2469-2479 of ATRX, no modification, coupled to KLH]” was tested, and the “reactivity with the Bethyl antibody” value (Bethyl antibody) was “did not react”.
With `CC(=O)c1c(C)c2cnc(Nc3ccc(N4CCNCC4)cn3)nc2n(C2CCCC2)c1=O` [PD0332991] the “number of ATRX foci in responder cells undergoing senescence” value ([1]; LS8817, PD0332991 treated vs not treated, FIG. 14) was “significantly more”, the “number of cells that contained 18 or more ATRX foci” value ([1]; LS8817, in response to PD0332991 treatment, FIG. 14) was “greatly increased” and the “earliest time at which the increase in ATRX foci is observed” value ([1]; responder cells, subsequent to PD0332991 treatment, FIG. 16A-C) was 2 days. The “number of ATRX foci” value ([1]; senescent responder cells, PD0332991 treatment, FIG. 13B) was “increased”, the “number of SA-β-gal positive cells” value [2] was “greatly reduced” and the “number of ATRX foci” value ([3]; LS8107, PD0332991 followed by shMDM2 2 days later, vs untreated or PD0332991 alone, FIG. 18) was “significant increase”. For the same molecule, the “average number of ATRX foci per cell” value ([3]; LS8107, PD0332991 treated vs not treated, FIG. 15) was “did not change” and the “number of ATRX foci” value ([3]; PD0332991-treated non-responder cells, FIG. 13B) was “no increase”.
In the case of “SKNPGPSQGKSM [Peptide 2490Ac, amino acids 2481-2492 of ATRX, acetylated at lysine 2490]”, the “reactivity with the Bethyl antibody” value (Bethyl antibody) is reported as “reacted”.
